Assay results reported in ChEMBL document CHEMBL4138105, “LL-37-derived short antimicrobial peptide KR-12-a5 and its d-amino acid substituted analogs with cell selectivity, anti-biofilm activity, synergistic effect with conventional antibiotics, and anti-inflammatory activity” (Eur J Med Chem, 2017).
Converted amounts (≈) assume the structure as drawn. The source made the active and inactive calls. No cut-off for these calls is given here.

Columns and labels:
Staphylococcus aureus [1] = test: Potency index, ratio of LL-37 MIC to compound MIC for methicillin resistant Staphylococcus aureus CCARM 3089; type: functional
Staphylococcus aureus [2] = test: Antibacterial activity against Staphylococcus aureus KCTC 1621 assessed as cell membrane disruption at 2 times MIC within 4 mins by Sytox Green dye based fluorescence spectrophotometer assay; type: functional, organism-based
Staphylococcus aureus [3] = test: Antibacterial activity against Staphylococcus aureus KCTC 1621 in presence of 4.5 mM KCl after 24 hrs; type: functional; conditions: KCTC 1621, 24 h
Pseudomonas aeruginosa [4] = test: Antibacterial activity against Pseudomonas aeruginosa KCTC 1637 after 24 hrs; type: functional; conditions: KCTC 1637, 24 h
Pseudomonas aeruginosa [5] = test: Synergistic antibacterial activity against multidrug-resistant Pseudomonas aeruginosa CCARM 2095 after 72 hrs in presence of chloramphenicol by chequerboard assay; type: functional
Staphylococcus aureus [6] = test: Antibacterial activity against Staphylococcus aureus KCTC 1621 after 24 hrs; type: functional; conditions: KCTC 1621, 24 h
RAW264.7 [7] = test: Anti-inflammatory activity in mouse RAW264.7 cells assessed as reduction in LPS-induced IL-6 production at 10 to 20 uM preincubated for 1 hr followed by LPS stimulation measured after 6 hrs by ELISA; type: functional, cell-based
Escherichia coli [8] = test: Antibacterial activity against Escherichia coli KCTC 1682 in presence of 150 mM NaCl after 24 hrs; type: functional; conditions: KCTC 1682, 24 h
Escherichia coli [9] = test: Antibacterial activity against Escherichia coli KCTC 1682 in presence of 4.5 mM KCl after 24 hrs; type: functional; conditions: KCTC 1682, 24 h
RAW264.7 [10] = test: Anti-inflammatory activity in mouse RAW264.7 cells assessed as reduction in LPS-induced MCP-1 production at 10 to 20 uM preincubated for 1 hr followed by LPS stimulation measured after 6 hrs by ELISA; type: functional, cell-based
Enterococcus faecium = test: Antibacterial activity against Vancomycin-resistant Enterococcus faecium ATCC 51559 after 24 hrs; type: functional; conditions: ATCC 51559, 24 h
[11] = Hemolytic activity in human RBC at 96 uM after 1 hr relative to control; type: ADME, cell-based, Erythrocyte; conditions: red blood cells (RBC, erythrocytes), read-out: Activity
RAW264.7 [12] = test: Anti-inflammatory activity in mouse RAW264.7 cells assessed as reduction in LPS-induced TNF-alpha mRNA expression at 10 uM after 3 hrs by RT-PCR analysis; type: functional, cell-based
RAW264.7 [13] = test: Anti-inflammatory activity in mouse RAW264.7 cells assessed as reduction in LPS-induced nitric oxide production at 10 to 20 uM after 24 hrs by Griess assay; type: functional, cell-based

Compound | Ratio (Staphylococcus aureus [1]) | Activity (Staphylococcus aureus [2]) | MIC (Staphylococcus aureus [3]) | MIC (Pseudomonas aeruginosa [4]) | fractional inhibitory concentration index (FICI) (Pseudomonas aeruginosa [5]) | MIC (Staphylococcus aureus [6]) | Activity (RAW264.7 [7]) | MIC (Escherichia coli [8]) | MIC (Escherichia coli [9]) | Activity (RAW264.7 [10]) | MIC (Enterococcus faecium) | hemolysis at 1 h, 96 µM [11] | Activity (RAW264.7 [12]) | Activity (RAW264.7 [13])
CC[C@H](C)[C@H](NC(=O)[C@H](CC(C)C)NC(=O)[C@H](CCCCN)NC(=O)[C@@H](NC(=O)[C@@H](NC(=O)[C@H](CCCNC(=N)N)NC(=O)[C@@H](N)CCCCN)[C@@H](C)CC)C(C)C)C(=O)N[C@@H](CC(C)C)C(=O)N[C@@H](CCCCN)C(=O)N[C@@H](Cc1c[nH]c2ccccc12)C(=O)N[C@@H](CC(C)C)C(=O)N[C@@H](CCCNC(=N)N)C(N)=O | 2 - 4 | Active | 2 µM | 8 µM (≈ 12.5 µg/mL) | 0.25 | 4 µM (≈ 6.26 µg/mL) | Active | 8 µM | 8 µM | Active | 4 µM (≈ 6.26 µg/mL) | 50% | Active | Active
CC[C@H](C)[C@H](NC(=O)[C@H](CCCNC(=N)N)NC(=O)[C@@H](N)CCCCN)C(=O)N[C@H](C(=O)N[C@@H](CCCCN)C(=O)N[C@@H](CC(C)C)C(=O)N[C@H](CC(C)C)C(=O)N[C@@H](CC(C)C)C(=O)N[C@@H](CCCCN)C(=O)N[C@@H](Cc1c[nH]c2ccccc12)C(=O)N[C@@H](CC(C)C)C(=O)N[C@@H](CCCNC(=N)N)C(N)=O)C(C)C | 2 - 4 | Active | 2 µM | 8 µM (≈ 12.5 µg/mL) | 0.5 | 2 µM (≈ 3.13 µg/mL) | Active | 4 µM | 4 µM | Active | 4 µM (≈ 6.26 µg/mL) |  | Active | Active
CC[C@H](C)[C@H](NC(=O)[C@H](CC(C)C)NC(=O)[C@@H](CCCCN)NC(=O)[C@@H](NC(=O)[C@@H](NC(=O)[C@H](CCCNC(=N)N)NC(=O)[C@@H](N)CCCCN)[C@@H](C)CC)C(C)C)C(=O)N[C@@H](CC(C)C)C(=O)N[C@@H](CCCCN)C(=O)N[C@@H](Cc1c[nH]c2ccccc12)C(=O)N[C@@H](CC(C)C)C(=O)N[C@@H](CCCNC(=N)N)C(N)=O | 2 - 4 | Active | 2 µM | 8 µM (≈ 12.5 µg/mL) | 0.375 | 2 µM (≈ 3.13 µg/mL) | Active | 4 µM | 4 µM | Active | 4 µM (≈ 6.26 µg/mL) |  | Active | Active
CC[C@H](C)[C@H](NC(=O)[C@H](CCCNC(=N)N)NC(=O)[C@@H](N)CCCCN)C(=O)N[C@H](C(=O)N[C@@H](CCCCN)C(=O)N[C@H](CC(C)C)C(=O)N[C@H](C(=O)N[C@@H](CC(C)C)C(=O)N[C@@H](CCCCN)C(=O)N[C@@H](Cc1c[nH]c2ccccc12)C(=O)N[C@@H](CC(C)C)C(=O)N[C@@H](CCCNC(=N)N)C(N)=O)[C@@H](C)CC)C(C)C | 2 - 4 | Active | 2 µM | 4 µM (≈ 6.26 µg/mL) | 0.375 | 2 µM (≈ 3.13 µg/mL) | Active | 4 µM | 4 µM | Active | 4 µM (≈ 6.26 µg/mL) |  | Active | Active
